Results on 17 molecules are retold here after ChEMBL document CHEMBL4177607, “Antibacterial constituents of the plant family Amaryllidaceae” (2017).

A word on the inhibition: it is the percentage by which the read-out fell short of the control. The MIC is the least concentration at which growth counts as inhibited. A higher MIC goes with a less susceptible organism.

The structures appear in SMILES notation. Converted amounts (≈) assume the structure as drawn.

Test [1] deals with Escherichia coli. Briefly: Antibacterial activity against Escherichia coli assessed as diameter of inhibition zone at 20 mg/ml. Particulars: read-out: DIZ. Type of test: functional.
In test [2] the test system is Staphylococcus aureus. Briefly: Antibacterial activity against Staphylococcus aureus assessed as diameter of inhibition zone at 20 mg/ml. The class given is functional. Particulars: read-out: DIZ.
For test [3], the system named is Pseudomonas aeruginosa. In words: Antibacterial activity against Pseudomonas aeruginosa assessed as diameter of inhibition zone at 3 mg/ml. The class given is functional. Particulars: read-out: DIZ.
Test [4] relates to Staphylococcus aureus. Briefly: Antibacterial activity against Staphylococcus aureus assessed as diameter of inhibition zone at 3 mg/ml. Type of test: functional. Particulars: read-out: DIZ.
For test [5], the system named is Agrobacterium tumefaciens. In words: Antibacterial activity against Agrobacterium tumefaciens assessed as inhibition of crown gall tumor initiation at 1 mg/ml. Type of test: functional.
The subject of the next test is Neisseria gonorrhoeae. In words: Antibacterial activity against Neisseria gonorrhoeae. The class given is functional.
The subject of test [6] is Staphylococcus aureus. In words: Antibacterial activity against Staphylococcus aureus after 24 hrs. Type of test: functional.
In test [7] the test system is Staphylococcus aureus. In words: Antibacterial activity against Staphylococcus aureus by agar dilution method. The class given is functional. (In agar dilution, organisms are placed on agar that contains the substance at set levels.)
Test [8] deals with Escherichia coli. Briefly: Antibacterial activity against Escherichia coli by agar dilution method. Type of test: functional.
Test [9] deals with Escherichia coli. Briefly: Antibacterial activity against Escherichia coli assessed as diameter of inhibition zone at 3 mg/ml. Type of test: functional. Conditions: read-out: DIZ.
Test [10] relates to Staphylococcus aureus. Briefly: Antibacterial activity against Staphylococcus aureus incubated overnight by two-fold serial dilution method. Type of test: functional.
Test [11] concerns Klebsiella pneumoniae. Briefly: Antibacterial activity against Klebsiella pneumoniae incubated overnight by two-fold serial dilution method. Type of test: functional.
For another test, the system named is Bacillus subtilis. Briefly: Antibacterial activity against Bacillus subtilis incubated overnight by two-fold serial dilution method. Type of test: functional.
Test [12] concerns Escherichia coli. Briefly: Antibacterial activity against Escherichia coli incubated overnight by two-fold serial dilution method. Type of test: functional.
Test [13] deals with Escherichia coli. In words: Antibacterial activity against Escherichia coli. Type of test: functional.
Test [14] relates to Staphylococcus aureus. In words: Antibacterial activity against Staphylococcus aureus assessed as diameter of inhibition zone at 1 mg/ml. Conditions: read-out: DIZ. The class given is functional.
The subject of test [15] is Escherichia coli. In words: Bacteriostatic activity against Escherichia coli assessed as growth inhibition at 8 ug/ml after 24 hrs. The class given is functional. Particulars: read-out: GI.
Test [16] deals with Escherichia coli. In words: Antibacterial activity against Escherichia coli assessed as diameter of inhibition zone at 1 mg/ml. Type of test: functional. Particulars: read-out: DIZ.
Test [17] relates to Klebsiella pneumoniae. In words: Antibacterial activity against Klebsiella pneumoniae assessed as diameter of inhibition zone at 20 mg/ml. Type of test: functional. Conditions: read-out: DIZ.
Another test concerns Helicobacter pylori. In words: Antibacterial activity against Helicobacter pylori assessed as diameter of inhibition zone at 1 mg/ml. Type of test: functional. Particulars: read-out: DIZ.
Test [18] deals with Pseudomonas aeruginosa. Briefly: Antibacterial activity against Pseudomonas aeruginosa assessed as diameter of inhibition zone at 20 mg/ml. Type of test: functional. Particulars: read-out: DIZ.
In a further test the test system is Salmonella typhi. In words: Antibacterial activity against Salmonella typhi assessed as diameter of inhibition zone at 20 mg/ml. The class given is functional, Salmonella enterica subsp. enterica serovar Typhi. Particulars: Salmonella enterica; read-out: DIZ.
In test [19] the test system is Pseudomonas aeruginosa. Briefly: Antibacterial activity against Pseudomonas aeruginosa. The class given is functional.
The test system of test [20] is Staphylococcus aureus. In words: Antibacterial activity against Staphylococcus aureus. Type of test: functional.
Test [21] concerns Flavobacterium columnare. Briefly: Antibacterial activity against Flavobacterium columnare BioMed. Type of test: functional.
For test [22], the system named is Flavobacterium columnare. In words: Antibacterial activity against Flavobacterium columnare ALM-00-173 after 24 hrs. The class given is functional. Particulars: ALM-00-173, 24 h.
Test [23] relates to Flavobacterium columnare. In words: Antibacterial activity against Flavobacterium columnare BioMed after 24 hrs. Type of test: functional.
The subject of another test is Rhodococcus fascians. Briefly: Antibacterial activity against Corynebacterium fascians assessed as diameter of inhibition zone at 10 mM after 48 to 72 hrs by paper disc method. Type of test: functional. Particulars: Rhodococcoides fascians; read-out: DIZ.
For the next test, the system named is Edwardsiella ictaluri. Briefly: Antibacterial activity against Edwardsiella ictaluri after 24 hrs. The class given is functional.
Test [24] relates to Flavobacterium columnare. In words: Antibacterial activity against Flavobacterium columnare ALM-00-173. The class given is functional.

For the molecule `O=c1c2cc3c(cc2c2cccc4ccn1c42)OCO3`, the zone of inhibition at 20000 µg/mL with Escherichia coli [1] and in the test with Staphylococcus aureus [2] was 7 mm in each case.

Take `O[C@H]1C=C2[C@H]3CN(Cc4cc5c(cc43)OCO5)[C@H]2C[C@@H]1O`: the zone of inhibition at 3000 µg/mL in the test on Pseudomonas aeruginosa [3] was determined as 16 mm; in the test with Staphylococcus aureus [4] it was 22 mm.

Turning to `O=C1N[C@@H]2C(=C[C@H](O)[C@@H](O)[C@H]2O[C@@H]2O[C@H](CO)[C@@H](O)[C@H](O)[C@H]2O)c2cc3c(c(O)c21)OCO3`, the inhibition at 1000 µg/mL in test [5] worked out at 53%.

`CC1(C)O[C@@H]2[C@H]3OS(=O)(=O)O[C@H]3[C@]3(O)c4cc5c(c(O)c4C(=O)N[C@H]3[C@@H]2O1)OCO5` gave an MIC with Neisseria gonorrhoeae of 32 to 64 µg/mL (≈ 72.2 to 144 µM).

As for `O=C(O[C@H]1[C@@H](O)[C@@H](O)[C@@H]2NC(=O)c3c(cc4c(c3O)OCO4)[C@@]2(O)[C@@H]1O)c1ccccc1`, the MIC against Neisseria gonorrhoeae lay within 32 to 64 µg/mL (≈ 71.8 to 144 µM).

For the molecule `COc1cc2c(cc1OC)[C@@H]1[C@@H](OC2=O)[C@@H](O)C[C@H]2CCN(C)[C@H]21.Cl`, the MIC in the test with Staphylococcus aureus [6] was over 37 µg/mL.

As for `CCCCCCCCCCCCCCCCC/C=C/CCC[C@@H](O)[C@@H](O)C(CO)N(C(=O)[C@H](O)CCCCCCCCCCCCCCC)C(O)CO` (some centres undefined), the MIC turned out to be 30 µg/mL (≈ 39.7 µM) in the test on Staphylococcus aureus [7] and 50 µg/mL (≈ 66.1 µM) against Escherichia coli [8].

In the test with Neisseria gonorrhoeae, `CC(=O)Oc1c2c(cc3c1C(=O)N[C@@H]1C3=C[C@H](OC(C)=O)[C@@H](OC(C)=O)[C@H]1OC(C)=O)OCO2` gave a minimum inhibitory concentration (MIC) of 32 to 64 µg/mL (≈ 67.3 to 135 µM).

As to `COC1=C[C@@H]2CCN3Cc4cc5c(cc4[C@@H]([C@H]23)[C@@H]1O)OCO5` [AMARBELLISINE], the zone of inhibition at 3000 µg/mL in the test on Escherichia coli [9] and in the test with Staphylococcus aureus [4] was 22 mm in each case.

Take `COc1c2c(cc3c1OCO3)[C@]13C=C[C@H](OC)C[C@H]1N(CC3)C2` [BUPHANIDRINE]: the MIC turned out to be 63 µg/mL (≈ 200 µM) against Staphylococcus aureus [10], 63 µg/mL (≈ 200 µM) with Klebsiella pneumoniae [11], 130 µg/mL (≈ 412 µM) in the test on Bacillus subtilis and 63 µg/mL (≈ 200 µM) with Escherichia coli [12].

`O[C@@H]1CC=C2CCN3Cc4cc5c(cc4[C@H]1[C@@H]23)OCO5` [CARANINE] showed an MIC against Escherichia coli [13] of 2050 µg/mL (≈ 7550 µM).

With `COC1=CC(=O)[C@@]23CCN(Cc4c2cc2c(c4OC)OCO2)[C@@H]3C1` [DISTICHAMINE], the minimal inhibitory concentration (MIC) in the test with Staphylococcus aureus [10] was determined as 63 µg/mL (≈ 191 µM); in the test with Klebsiella pneumoniae [11], 63 µg/mL (≈ 191 µM); against Bacillus subtilis it was 130 µg/mL (≈ 395 µM); in the test with Escherichia coli [12], 63 µg/mL (≈ 191 µM).

`O=C1N[C@@H]2C(=C[C@H](O)[C@@H](O)[C@H]2O)c2cc3c(c(O)c21)OCO3` [NARCICLASINE]: in test [5], the inhibition at 1000 µg/mL came out at 62%. In addition, the zone of inhibition at 1000 µg/mL came to 11 mm with Staphylococcus aureus [14] and 13 mm in the test on Escherichia coli [16]. Besides, in the test on Escherichia coli [15], the inhibition of growth at 8 µg/mL turned out to be 50%.

On to `CC1(C)S[C@@H]2[C@H](NC(=O)Cc3ccccc3)C(=O)N2[C@H]1C(=O)O` [PENICILLIN G], for which the MIC in the test on Staphylococcus aureus [7] is 0.46 µg/mL (≈ 1.38 µM); against Escherichia coli [8] it was 0.77 µg/mL (≈ 2.3 µM). In addition, the values for the zone of inhibition at 1000 µg/mL with Staphylococcus aureus [14] and with Escherichia coli [16] were 28 mm and 25 mm, respectively.

For `CC[C@H](CC[C@@H](C)[C@H]1CC[C@H]2[C@@H]3CC=C4C[C@@H](O[C@@H]5O[C@H](CO)[C@@H](O)[C@H](O)[C@H]5O)CC[C@]4(C)[C@H]3CC[C@]12C)C(C)C` [SITOGLUSIDE], the zone of inhibition at 20000 µg/mL in the test with Escherichia coli [1] amounted to 9 mm; in the test with Klebsiella pneumoniae [17] it was 8 mm; in the test on Pseudomonas aeruginosa [18], 7 mm; in the test on Salmonella typhi, 8 mm; in the test on Staphylococcus aureus [2], 7 mm. Also, the zone of inhibition at 1000 µg/mL was found to be 9 mm in the test with Helicobacter pylori, 9 mm in the test with Staphylococcus aureus [14] and 14 mm in the test with Escherichia coli [16].

Consider `[O-]c1cc2c3c(c1)c1cc4c(cc1c[n+]3CC2)OCO4` [UNGEREMINE], for which the MIC is 125 to 250 µg/mL (≈ 471 to 942 µM) with Pseudomonas aeruginosa [19]; 25 to 265 µg/mL (≈ 94.2 to 999 µM) against Staphylococcus aureus [20]; 3 µg/mL (≈ 11.3 µM) against Flavobacterium columnare [21]; 1 µM (≈ 0.265 µg/mL) in the test on Flavobacterium columnare [22]; 25 to 50 µg/mL (≈ 94.2 to 188 µM) against Escherichia coli [13]; 1 µM (≈ 0.265 µg/mL) in the test with Flavobacterium columnare [23]. The MIC in the test with Edwardsiella ictaluri and against Flavobacterium columnare [24] was 3 µg/mL (≈ 11.3 µM) in each case. In the test with Rhodococcus fascians, the zone of inhibition at 10000 µM came to 15 mm.

As for `O[C@@H]1C=C[C@]23CCN(Cc4cc5c(cc42)OCO5)[C@H]3C1` [VITTATINE], the figures for the zone of inhibition at 3000 µg/mL in the test with Escherichia coli [9] and in the test on Staphylococcus aureus [4] were 22 mm and 19 mm, respectively.
